The values below come from patent US20250026721A1, “COMPOUNDS AND METHODS FOR MODULATING RAS-PI3K” (Vividion Therapeutics, Inc., priority 2023, published 2025).

In this assay the target is T1, PIK3CA (Homo sapiens, UniProt P42336).
T1 construct: endogenous in cells; host or cells: Jurkat cell lysate
Briefly: In vitro ELISA target engagement assay for PIK3CA in Jurkat cellular lysate (competition with PIK3CA Biotin Probe). It is filed as binding. To be noted: 1 hour at rt, then 500 nM PIK3CA Biotin Probe, read-out: Elisa Target Engagement Assay (TE50). How it is done:
Example 3. In Vitro ELISA Target Engagement Assay for […] Engagement of compounds on PIK3CA were assessed in Jurkat cellular lysate via a sandwich ELISA. A solution of PIK3CA Biotin Probe was generated at 10 mM and used in the biological testing. […] Treatment Protocol: Jurkat cellular lysate was generated from frozen cell pellets. Cells were thawed on ice and resuspended in cold Dulbecco's phosphate buffered saline (DPBS) (12 mL/300 e^6 cells) then lysed by probe sonication (12×3 second pulses). Jurkat lysate was plated (50 μl/well) in Armadillo 96 well PCR plates (Thermo Fisher catalog number AB2396). The lysate was treated with serial dilutions of test compounds up to 200 μM and incubated for 1 hour at rt. Following compound incubation, PIK3CA Biotin Probe was added to a final concentration of 500 nM, and lysate was mixed by pipetting gently and incubated for an additional 1 hour at rt. The mixture was then diluted in 75 μL Dilution buffer. The mixture was centrifuged for 5 minutes at 4122 g and stored at −80° C. until ELISA TE detection. ELISA TE Detection: Quantification of PIK3CA TE was initiated by coating of the ELISA plate (Thermo Scientific White 384-Well Immuno plates; Thermo Fisher catalog number 460372). The capture antibody was diluted in plating buffer (1:83) and added to the ELISA plate, 20 μl/well, overnight at 4° C. The plate was then washed twice with PBST, 100 μl/well, and blocked with addition of blocking buffer (100 μl/well, 1 hour at rt). During block, treated and probe labeled lysate was thawed. After Block, the block buffer was removed and the thawed lysate was added to the ELISA plate, 30 μl/well, for 1.5 hours at rt. Following lysate incubation, the assay plate was washed 3 times with PBST, 100 μl/well. The Neutravidin-HRP was then diluted (1:500 in dilution buffer) and added for 1 hour at rt, 20 μl/well. Following incubation, the assay plate was washed 4 times with PBST, 100 μl/well, HRP substrate was added to plate, 20 μl/well and luminescence signal was read (Clariostar Plate Reader). For each compound the potency of target engagement (TE50) was determined using Graphpad Prism.
(In an ELISA, binding on a coated surface is turned into a signal by an enzyme label.)

T1 sequence (P42336 whole entry): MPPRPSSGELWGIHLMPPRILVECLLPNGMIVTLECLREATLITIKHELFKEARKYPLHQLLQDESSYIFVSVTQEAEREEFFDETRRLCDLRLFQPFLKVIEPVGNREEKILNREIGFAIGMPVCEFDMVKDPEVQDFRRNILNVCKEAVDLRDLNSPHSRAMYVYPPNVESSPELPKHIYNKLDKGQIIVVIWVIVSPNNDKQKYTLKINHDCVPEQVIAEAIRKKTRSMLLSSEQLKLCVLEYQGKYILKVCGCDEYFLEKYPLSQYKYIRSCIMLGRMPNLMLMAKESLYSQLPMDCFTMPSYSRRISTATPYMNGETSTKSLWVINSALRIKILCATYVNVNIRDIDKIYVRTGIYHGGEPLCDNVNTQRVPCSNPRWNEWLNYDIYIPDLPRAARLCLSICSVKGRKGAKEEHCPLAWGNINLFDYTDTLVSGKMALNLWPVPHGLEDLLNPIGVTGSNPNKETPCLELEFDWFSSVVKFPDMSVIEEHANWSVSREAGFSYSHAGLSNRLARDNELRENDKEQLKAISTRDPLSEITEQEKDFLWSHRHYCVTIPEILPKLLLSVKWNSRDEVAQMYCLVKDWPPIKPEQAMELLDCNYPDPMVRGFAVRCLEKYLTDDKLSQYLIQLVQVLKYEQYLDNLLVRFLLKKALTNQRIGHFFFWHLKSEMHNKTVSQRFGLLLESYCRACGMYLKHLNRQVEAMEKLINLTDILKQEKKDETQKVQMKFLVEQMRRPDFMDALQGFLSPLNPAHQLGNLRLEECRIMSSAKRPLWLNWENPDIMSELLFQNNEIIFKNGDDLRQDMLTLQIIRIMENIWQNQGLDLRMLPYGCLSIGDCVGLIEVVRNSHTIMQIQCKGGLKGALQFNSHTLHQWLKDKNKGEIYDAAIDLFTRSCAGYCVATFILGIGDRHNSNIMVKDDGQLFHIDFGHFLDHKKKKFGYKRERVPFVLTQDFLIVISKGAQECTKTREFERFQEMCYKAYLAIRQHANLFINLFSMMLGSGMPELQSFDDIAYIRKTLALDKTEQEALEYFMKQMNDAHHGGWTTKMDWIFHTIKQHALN
T1 sequence (P27986 whole entry partner): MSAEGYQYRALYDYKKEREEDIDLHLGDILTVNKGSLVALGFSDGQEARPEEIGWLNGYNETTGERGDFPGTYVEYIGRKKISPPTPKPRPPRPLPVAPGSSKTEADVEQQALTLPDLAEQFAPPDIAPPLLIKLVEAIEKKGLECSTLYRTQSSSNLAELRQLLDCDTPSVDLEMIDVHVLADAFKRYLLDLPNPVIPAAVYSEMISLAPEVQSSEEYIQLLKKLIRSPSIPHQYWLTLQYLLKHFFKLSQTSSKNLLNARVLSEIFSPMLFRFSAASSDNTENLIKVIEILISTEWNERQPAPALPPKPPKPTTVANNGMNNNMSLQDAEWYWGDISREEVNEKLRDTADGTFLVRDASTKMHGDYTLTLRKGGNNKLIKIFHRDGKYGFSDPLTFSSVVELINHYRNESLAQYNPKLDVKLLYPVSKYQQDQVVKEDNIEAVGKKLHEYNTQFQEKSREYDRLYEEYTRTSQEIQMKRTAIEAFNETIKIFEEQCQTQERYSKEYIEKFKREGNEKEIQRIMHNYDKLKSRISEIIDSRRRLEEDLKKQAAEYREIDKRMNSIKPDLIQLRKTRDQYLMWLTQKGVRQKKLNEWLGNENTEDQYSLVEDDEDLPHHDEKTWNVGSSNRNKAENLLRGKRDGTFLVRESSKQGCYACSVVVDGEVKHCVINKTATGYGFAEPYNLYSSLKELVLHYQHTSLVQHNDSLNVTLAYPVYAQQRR

On to `O=C(N[C@H]1C=CS(=O)(=O)C1)C1(F)CCN(S(=O)(=O)c2ccc(Br)cc2-c2ccccc2Cl)CC1` [Compound 67, (S)-1-((5-bromo-2′-chloro-[1,1′-biphenyl]-2-yl)sulfonyl)-N-(1,1-dioxido-2,3-dihydrothiophen-3-yl)-4-fluoropiperidine-4-carboxamide], for which the IC50 worked out at 95.6 nM.

Take `COc1ccc(S(=O)(=O)N2CC[C@](F)(C(=O)N[C@H](C)/C=C\S(C)(=O)=O)CC2(C)C)c(-c2ccccc2Cl)c1` (single isomer, unassigned) [Compound 150, (*R)-1-((2′-chloro-5-methoxy-[1,1′-biphenyl]-2-yl)sulfonyl)-4-fluoro-2,2-dimethyl-N-((R,Z)-4-(methylsulfonyl)but-3-en-2-yl)piperidine-4-carboxamide]: the IC50 worked out at 310 nM. For the compound `COC[C@H](/C=C\S(C)(=O)=O)NC(=O)C1(F)CCN(S(=O)(=O)c2ccc(Br)cc2-c2ccccc2Cl)CC1` [Compound 247, (S,Z)-1-((5-bromo-2′-chloro-[1,1′-biphenyl]-2-yl)sulfonyl)-4-fluoro-N-(1-methoxy-4-(methylsulfonyl)but-3-en-2-yl)piperidine-4-carboxamide], the IC50 is 410 nM.

On to `Cc1cccc(Cl)c1-c1cc(Br)ccc1S(=O)(=O)N1CCC(F)(C(=O)N[C@H](C)/C=C\S(C)(=O)=O)CC1` [Compound 60, 1-((5-bromo-2′-chloro-6′-methyl-[1,1′-biphenyl]-2-yl)sulfonyl)-4-fluoro-N-((R,Z)-4-(methylsulfonyl)but-3-en-2-yl)piperidine-4-carboxamide], for which the IC50 was 810 nM.

In the case of `C[C@@H](/C=C\S(C)(=O)=O)NC(=O)C1(F)CCN(S(=O)(=O)c2cnc(C(F)(F)F)cc2-c2ccc(F)cc2Cl)CC1` [Compound 212, (S,Z)-1-((4-(2-chloro-4-fluorophenyl)-6-(trifluoromethyl)pyridin-3-yl)sulfonyl)-4-fluoro-N-(4-(methylsulfonyl)but-3-en-2-yl)piperidine-4-carboxamide], the IC50 stood at 380 nM.

As for `C[C@H](/C=C\S(C)(=O)=O)NC(=O)C1(F)CCN(S(=O)(=O)c2ccc(Br)cc2-c2ccc(F)cc2Cl)CC1` [Compound 50, (R,Z)-1-((5-bromo-2′-chloro-4′-fluoro-[1,1′-biphenyl]-2-yl)sulfonyl)-4-fluoro-N-(4-(methylsulfonyl)but-3-en-2-yl)piperidine-4-carboxamide], the IC50 came to 319 nM. With `Cc1ccc(-c2cc(Br)ccc2S(=O)(=O)N2CCC(F)(C(=O)N[C@H](C)/C=C\S(C)(=O)=O)CC2)c(Cl)c1` [Compound 53, (R,Z)-1-((5-bromo-2′-chloro-4′-methyl-[1,1′-biphenyl]-2-yl)sulfonyl)-4-fluoro-N-(4-(methylsulfonyl)but-3-en-2-yl)piperidine-4-carboxamide], the IC50 came out at 960 nM. For `C[C@@H](/C=C/S(=O)(=O)C1CNC1)NC(=O)C1(F)CCN(S(=O)(=O)c2ccc(Br)cc2-c2ccccc2Cl)CC1` [Compound 75, (S,E)-N-(4-(azetidin-3-ylsulfonyl)but-3-en-2-yl)-1-((5-bromo-2′-chloro-[1,1′-biphenyl]-2-yl)sulfonyl)-4-fluoropiperidine-4-carboxamide], the IC50 came to 140 nM. Next, `C[C@H](/C=C/C(=O)N1CC(F)(F)C1)NC(=O)C1(F)CCN(S(=O)(=O)c2ccc(C#N)cc2-c2ccccc2Cl)CC1` [Compound 136, (R,E)-1-((2′-chloro-5-cyano-[1,1′-biphenyl]-2-yl)sulfonyl)-N-(5-(3,3-difluoroazetidin-1-yl)-5-oxopent-3-en-2-yl)-4-fluoropiperidine-4-carboxamide]: 190 nM.

With `C[C@H](/C=C\S(C)(=O)=O)NC(=O)C1(F)CCN(C(=O)[C@H]2CN(C3CC3)C[C@H]2c2ccccc2Cl)CC1` [Compound 304, 1-((3R,4R)-4-(2-chlorophenyl)-1-cyclopropylpyrrolidine-3-carbonyl)-4-fluoro-N-((R,Z)-4-(methylsulfonyl)but-3-en-2-yl)piperidine-4-carboxamide], the IC50 amounted to 740 nM.
